Experimental data taken from US20210338654A1 (priority 2019, published 2021).
Several values for one entry are separate records, joined by “and”; a condition that tells them apart may be missing. Equal entries are not always repeated.

Tests used:
[1] = test system: breakthrough migraine in patient treated with fremanezumab; settings: human, in vivo
[2] = test system: migraine attack of moderate or severe intensity in adults; assay type: in vivo, human
patients with migraine = settings: in vivo
[3] = test system: breakthrough migraine in patients treated with erenumab-aooe; settings: human, in vivo
[4] = test system: breakthrough migraine in patients treated with botulinum toxin (Botox); settings: human, in vivo

N[C@@H]1c2cccnc2[C@H](OC(=O)N2CCC(n3c(=O)[nH]c4ncccc43)CC2)CC[C@H]1c1cccc(F)c1F [Rimegepant, [(5S,6S,9R)-5-amino-6-(2,3-difluorophenyl)-6,7,8,9-tetrahydro-5H-cyclohepta[b]pyridin-9-yl] 4-(2-oxo-3H-imidazo[4,5-b]pyridin-1-yl)piperidine-1-carboxylate]
migraine breakthroughs successfully treated [1]: three migraine breakthroughs that were successfully treated | N. Censored (no pain score of none by 495 minutes postdose, censored at 496 minutes) ([2]; N = 537): 139 | Freedom from most bothersome symptom at two hours postdose, Common Risk ([2]; in vivo): 41.2% | Freedom from most bothersome symptom at two hours postdose, Free from MBS n/N ([2]; in vivo): 31/89 and 171/448 and 202/537 | Freedom from most bothersome symptom at two hours postdose, Stratum Risk ([2]; in vivo): 40.3% and 41.4% | Pain freedom at two hours postdose, Common Risk ([2]; in vivo): 20.2% | Pain freedom at two hours postdose, No Pain n/N ([2]; in vivo): 14/89 and 91/448 and 105/537 | Pain freedom at two hours postdose, Risk Difference Rimegepant vs Placebo ([2]; in vivo): 7.82 and 7.36 and 7.91 | Pain freedom at two hours postdose, Stratum Risk ([2]; in vivo): 16.7% and 20.9% | incidence of serum ALT or AST >3×ULN (patients with migraine; human): 1.0% | Hy's Law cases (patients with migraine): no Hy's Law cases identified | liver cases assessed as probably related to study drug (patients with migraine): no liver cases assessed as probably related to study drug | liver safety signal (patients with migraine): no liver safety signal detected to date | mean reduction in headaches/month (patients with migraine): 4 days | patients with at least 30% reduction in monthly number of headache days (patients with migraine): Approximately 40% | Preference of Medication response [3]: Much better, I prefer this medication. | Satisfaction with Medication (SM) response [3]: Very satisfied. | acute treatment of breakthrough migraine, outcome [3]: effective | adverse events [3]: no adverse events | adverse events related to treatment [3]: no adverse events related to treatment | adverse events while receiving rimegepant alone (streptococcal pharyngitis, considered unrelated) [3]: 1 | rating versus previous treatments [3]: much better | relief from breakthrough migraine headache [3]: obtained relief from the migraine headache without the need to take other medications | satisfaction with rimegepant at end-of-study visit [3]: very satisfied | adverse effects from treatment [4]: did not report any adverse effects | need for rescue medication [4]: did not require any rescue medications or additional doses of rimegepant | number of headache days (parent report) [4]: noticeable reduction in the number of headache days | relief from breakthrough migraine headache [4]: obtained relief from the migraine headache without the need to take other medications | resolution of Botox induced headache [4]: completely resolved within an hour | time to full resolution of headache [4]: ≤ 1 h | time to pain relief [4]: within a half an hour

CN(C)CCc1c[nH]c2ccc(C[C@H]3COC(=O)N3)cc12 [Zomig®, reference compound]
effect on migraines (patient history) [4]: would decrease in intensity but they would not attain freedom from pain within 24 hrs

B1: erenumab (antibody, chains of the INN, looked up, V domains shown)
VH: QVQLVESGGGVVQPGRSLRLSCAASGFTFSSFGMHWVRQAPGKGLEWVAVISFDGSIKYSVDSVKGRFTISRDNSKNTLFLQMNSLRAEDTAVYYCARDRLNYYDSSGYYHYKYYGMAVWGQGTTVTVSS
VL: QSVLTQPPSVSAAPGQKVTISCSGSSSNIGNNYVSWYQQLPGTAPKLLIYDNNKRPSGIPDRFSGSKSGTSTTLGITGLQTGDEADYYCGTWDSRLSAVVFGGGTKLTVL
decline in monthly migraine days (MMDs) [3]: 46% | monthly migraine days of any pain intensity after starting erenumab [3]: 7 MMDs
